This note sets out measurements from ChEMBL document CHEMBL4602676, “Discovery and Development of 3-(6-Chloropyridine-3-yloxymethyl)-2-azabicyclo[3.1.0]hexane Hydrochloride (SUVN-911): A Novel, Potent, Selective, and Orally Active Neuronal Nicotinic Acetylcholine α4β2 Receptor Antagonist for the Treatment of Depression” (J Med Chem, 2020).

One data set concerns Rattus norvegicus. In words: Antidepressant activity in Wistar rat assessed as immobility time at 10.0 mg/kg, po measured for 5 mins by forced swim test (reference value: 241.9 to 281.6 sec). The class given is functional.
Another data set relates to Lymphocyte. In words: Genotoxicity in human peripheral lymphocytes assessed as non clastogenic by chromosomal aberration assay. The class given is toxicity, cell-based.
Data set [1] in a line: Clearance in Beagle dog at 1 mg/kg, iv by LC-MS/MS analysis. The class given is ADME, organism-based, Canis lupus familiaris. The following applies: in vivo.
Data set [2] concerns the target T1, Solute carrier family 22 member 2 (Homo sapiens, UniProt O15244).
T1 sequence (O15244 whole entry): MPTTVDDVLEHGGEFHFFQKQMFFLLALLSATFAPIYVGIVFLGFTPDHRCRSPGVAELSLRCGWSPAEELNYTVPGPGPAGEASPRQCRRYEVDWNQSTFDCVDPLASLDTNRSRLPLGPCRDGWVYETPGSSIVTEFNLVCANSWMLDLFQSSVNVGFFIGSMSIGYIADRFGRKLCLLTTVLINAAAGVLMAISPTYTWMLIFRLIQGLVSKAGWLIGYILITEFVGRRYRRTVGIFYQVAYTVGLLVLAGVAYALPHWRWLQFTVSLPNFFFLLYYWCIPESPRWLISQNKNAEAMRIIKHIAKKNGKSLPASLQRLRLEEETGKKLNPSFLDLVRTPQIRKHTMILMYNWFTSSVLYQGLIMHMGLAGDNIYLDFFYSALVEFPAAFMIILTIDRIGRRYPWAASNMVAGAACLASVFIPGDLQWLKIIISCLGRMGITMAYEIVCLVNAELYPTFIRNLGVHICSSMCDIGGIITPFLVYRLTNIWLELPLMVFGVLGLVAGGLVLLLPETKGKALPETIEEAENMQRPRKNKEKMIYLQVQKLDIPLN
In words: Inhibition of OCT2 (unknown origin).

A short description of data set [3]: Oral bioavailability in Wistar rat at 10 ml/kg measured upto 24 hrs by LC-MS/MS analysis. The class given is ADME, organism-based. The following applies: in vivo.
The nature of data set [4]: Genotoxicity in Salmonella typhimurium TA98 in absence of metabolic activation. Type of data set: toxicity. The following applies: salmonella enterica subsp. enterica serovar typhimurium.
Data set [5] is described as follows: Genotoxicity in Salmonella typhimurium TA1535 in presence of metabolic activation. The class given is toxicity. Conditions: salmonella enterica subsp. enterica serovar typhimurium.
Data set [6] in a line: Protein binding in rat plasma assessed as unbound fraction at […] incubated for 6 hrs by LC-MS/MS analysis. Type of data set: ADME, cell-free.
Data set [7] in a line: Genotoxicity in Salmonella typhimurium TA98 in presence of metabolic activation. Type of data set: toxicity. Conditions: salmonella enterica subsp. enterica serovar typhimurium.
Data set [8] deals with Voltage-gated inwardly rectifying potassium channel KCNH2 (Homo sapiens, UniProt Q12809). In words: Inhibition of recombinant human ERG expressed in HEK293 at -80 mV holding potential by whole-cell patch clamp method. Type of data set: cell-based.
Chain of Voltage-gated inwardly rectifying potassium channel KCNH2 (Q12809 whole entry): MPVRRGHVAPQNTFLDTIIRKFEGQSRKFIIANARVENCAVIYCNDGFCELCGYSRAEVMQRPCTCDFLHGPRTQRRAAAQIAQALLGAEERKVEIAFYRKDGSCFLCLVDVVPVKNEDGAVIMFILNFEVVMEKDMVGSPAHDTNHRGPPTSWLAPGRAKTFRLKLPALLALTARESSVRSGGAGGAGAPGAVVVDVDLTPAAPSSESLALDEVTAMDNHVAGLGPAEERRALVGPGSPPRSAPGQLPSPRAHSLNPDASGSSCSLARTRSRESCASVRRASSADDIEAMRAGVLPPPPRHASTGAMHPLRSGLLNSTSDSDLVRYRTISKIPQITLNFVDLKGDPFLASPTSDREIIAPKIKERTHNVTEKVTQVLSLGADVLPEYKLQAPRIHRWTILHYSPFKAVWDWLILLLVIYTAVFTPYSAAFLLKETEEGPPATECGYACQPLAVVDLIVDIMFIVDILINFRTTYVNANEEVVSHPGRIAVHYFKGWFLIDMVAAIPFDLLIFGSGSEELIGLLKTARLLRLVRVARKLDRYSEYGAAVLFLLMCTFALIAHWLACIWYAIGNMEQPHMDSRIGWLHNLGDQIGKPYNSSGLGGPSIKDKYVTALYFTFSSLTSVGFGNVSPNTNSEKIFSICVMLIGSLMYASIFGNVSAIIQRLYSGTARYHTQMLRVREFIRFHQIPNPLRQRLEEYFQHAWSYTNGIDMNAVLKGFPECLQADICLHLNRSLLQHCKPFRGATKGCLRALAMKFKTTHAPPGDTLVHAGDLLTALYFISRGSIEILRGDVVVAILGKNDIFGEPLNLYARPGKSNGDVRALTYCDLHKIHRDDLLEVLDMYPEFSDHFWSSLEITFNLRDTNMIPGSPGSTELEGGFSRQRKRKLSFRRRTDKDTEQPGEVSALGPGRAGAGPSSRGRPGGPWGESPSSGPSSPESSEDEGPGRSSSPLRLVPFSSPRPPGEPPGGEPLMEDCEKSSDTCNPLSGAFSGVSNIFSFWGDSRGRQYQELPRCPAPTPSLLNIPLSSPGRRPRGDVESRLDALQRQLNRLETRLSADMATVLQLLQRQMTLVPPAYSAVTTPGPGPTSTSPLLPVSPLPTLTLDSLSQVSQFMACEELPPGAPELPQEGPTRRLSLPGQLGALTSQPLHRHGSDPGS
Data set [9] deals with T2, Solute carrier family 22 member 6 (Homo sapiens, UniProt Q4U2R8).
T2 sequence (Q4U2R8 whole entry): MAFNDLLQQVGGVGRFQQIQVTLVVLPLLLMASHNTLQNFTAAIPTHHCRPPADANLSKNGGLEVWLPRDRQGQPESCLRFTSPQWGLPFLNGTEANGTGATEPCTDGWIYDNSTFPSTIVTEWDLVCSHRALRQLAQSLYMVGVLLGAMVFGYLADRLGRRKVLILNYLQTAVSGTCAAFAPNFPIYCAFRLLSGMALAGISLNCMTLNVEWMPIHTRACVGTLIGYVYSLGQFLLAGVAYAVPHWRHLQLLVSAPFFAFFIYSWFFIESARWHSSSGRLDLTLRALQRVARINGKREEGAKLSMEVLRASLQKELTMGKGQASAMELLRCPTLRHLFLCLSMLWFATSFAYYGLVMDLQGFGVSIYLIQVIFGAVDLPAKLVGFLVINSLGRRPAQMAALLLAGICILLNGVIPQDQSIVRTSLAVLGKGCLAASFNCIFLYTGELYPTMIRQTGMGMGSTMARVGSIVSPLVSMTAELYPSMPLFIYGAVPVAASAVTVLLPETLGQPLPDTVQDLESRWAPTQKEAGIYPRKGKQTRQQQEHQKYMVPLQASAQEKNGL
The data set is described as follows: Inhibition of OAT1 (unknown origin).

The target in another data set is Cytochrome P450 3A4 (Homo sapiens, UniProt P08684). The data set is described as follows: Inhibition of CYP3A4 in human liver microsomes using midazolam as substrate incubated for 2 min in presence of NADPH by LC-MS/MS analysis. Type of data set: ADME. In general terms: Microsomes from liver hold many membrane-bound enzymes, among them those of drug oxidation.
Chain of Cytochrome P450 3A4 (P08684 whole entry): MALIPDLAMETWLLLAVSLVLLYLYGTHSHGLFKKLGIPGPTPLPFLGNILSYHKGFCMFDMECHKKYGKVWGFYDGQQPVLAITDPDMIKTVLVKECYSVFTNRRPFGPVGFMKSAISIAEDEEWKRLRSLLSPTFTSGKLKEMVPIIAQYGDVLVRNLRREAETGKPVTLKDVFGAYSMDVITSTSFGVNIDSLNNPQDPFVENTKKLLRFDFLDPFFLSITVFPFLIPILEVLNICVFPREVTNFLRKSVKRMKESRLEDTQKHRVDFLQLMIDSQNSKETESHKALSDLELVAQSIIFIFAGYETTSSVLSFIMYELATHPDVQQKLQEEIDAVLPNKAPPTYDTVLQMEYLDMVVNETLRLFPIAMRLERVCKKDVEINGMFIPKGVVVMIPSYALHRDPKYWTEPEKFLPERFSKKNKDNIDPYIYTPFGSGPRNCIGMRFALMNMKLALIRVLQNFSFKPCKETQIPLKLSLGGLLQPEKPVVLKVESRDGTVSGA
In the next data set the target is Cytochrome P450 2D6 (Homo sapiens, UniProt P10635). In words: Inhibition of CYP2D6 in human liver microsomes using dextromethorphan as substrate incubated for 12 min in presence of NADPH by LC-MS/MS analysis. Type of data set: ADME.
Chain of Cytochrome P450 2D6 (P10635 whole entry): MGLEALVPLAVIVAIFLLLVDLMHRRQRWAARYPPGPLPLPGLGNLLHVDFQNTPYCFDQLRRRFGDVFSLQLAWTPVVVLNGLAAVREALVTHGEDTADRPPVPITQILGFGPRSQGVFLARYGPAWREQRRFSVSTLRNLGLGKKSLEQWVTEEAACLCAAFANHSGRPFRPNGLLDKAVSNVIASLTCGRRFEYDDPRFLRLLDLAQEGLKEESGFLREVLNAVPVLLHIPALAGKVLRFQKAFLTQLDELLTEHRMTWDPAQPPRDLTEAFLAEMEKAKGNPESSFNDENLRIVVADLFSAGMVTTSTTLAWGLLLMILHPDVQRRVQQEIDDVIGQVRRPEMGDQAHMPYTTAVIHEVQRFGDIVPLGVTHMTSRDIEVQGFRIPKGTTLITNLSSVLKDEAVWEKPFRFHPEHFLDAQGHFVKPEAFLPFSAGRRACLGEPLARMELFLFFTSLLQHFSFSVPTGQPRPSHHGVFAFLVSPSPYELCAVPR
Data set [10] can be described thus: Volume of distribution in Beagle dog at 1 mg/kg, iv by LC-MS/MS analysis. Type of data set: ADME, organism-based, Canis lupus familiaris. Conditions: in vivo; call rule not given here.

Take `Cl.Clc1ccc(OC[C@@H]2C[C@H]3C[C@H]3N2)cn1`: the Time with Rattus norvegicus is 81.5 s. Also, the Activity entry (in the data set on Lymphocyte; in data set [4]; in data set [5]; in data set [7]) was “Non-Toxic” in each case. This compound also displayed a clearance in data set [1] of 10 mL/min/kg. The “inhibition (INH)” value in data set [2] and in data set [9] was “Not Active” in each case. Also, the bioavailability in [3] turned out to be 66%. The fraction unbound at 6 h in data set [6] came to 0.31. Besides, the 50% inhibitory concentration (IC50) in data set [8] is > 10 µM; on Cytochrome P450 3A4 it was > 45 µM; on Cytochrome P450 2D6 it was 38.1 µM. The compound also yielded a Vd in data set [10] of 1.3 L/kg.

One may read the clearance as the volume of plasma or blood freed of the substance per unit of time. Low readings indicate a low capacity for elimination, high ones a high capacity for elimination. In general, bioavailability refers to dose-corrected exposure relative to a reference, in per cent. The fraction unbound is free concentration divided by total concentration. Usually IC50 stands for the midpoint of a concentration-inhibition curve. A word on the Vd: it is the apparent volume that relates the amount in the body to the concentration in plasma or blood. The low end stands for little distribution into tissue, the high end for wide distribution into tissue.
